{
  "source": "patent US12569471B2",
  "about": "“Method of treatment of CNS disorders” (Supernus Pharmaceuticals, Inc., priority 2009, dated 2026)",
  "key": {"[1]": {"molecular_target": "T1, Delta2(h) opioid receptor (Homo sapiens, UniProt P41143)", "T1 construct": "expressed in transfected cells; host or cells: CHO cell line", "test": "heterologous competition (displacement) assay, delta opioid receptor", "format": "binding", "conditions": "10 μM mazindol; [3H] [D-Ala2, D-Leu5] enkephalin 0.5 nM; 120 min/22° C.", "method": "(§1) A heterologous competition assay was used to determine the relative affinity of mazindol for opioid receptors. Briefly, recombinant μ-, κ- or δ-opioid receptors were expressed in a CHO cell line. The receptors were then saturated with a tritiated receptor-specific ligand at concentrations known to be saturating. Thereupon, 10 μM mazindol was added to the cells in the presence of non-specific ligand and incubated. In this way, mazindol was allowed to “compete” with the receptor-specific ligand, such that greater displacement (i.e., % inhibition) is indicative of greater binding strength of mazindol at a given receptor. “Specific binding” refers here to the difference in the binding of the ligand to the receptors in the presence or absence of an excess of the mazindol."}, "[2]": {"molecular_target": "T2, Kappa (rat) opioid receptor (Rattus norvegicus, UniProt P34975)", "T2 construct": "expressed in transfected cells; host or cells: CHO cell line", "test": "heterologous competition (displacement) assay, kappa opioid receptor", "format": "binding", "conditions": "10 μM mazindol; [3H]U 69593 1 nM; 60 min/22° C.", "method": "as §1"}, "[3]": {"molecular_target": "T3, human μ-opioid receptor (Homo sapiens, UniProt P35372)", "T3 construct": "expressed in transfected cells; host or cells: CHO cell line", "test": "heterologous competition (displacement) assay and IC50 determination, μ-opioid receptor", "format": "binding", "parameters": "binding at the μ-opioid receptor (specific binding), 1st test / binding at the μ-opioid receptor (specific binding), 2nd Test / binding at the μ-opioid receptor (specific binding), Mean: unit not given here", "method": "as §1\nFor this experiment, a range of mazindol concentrations was selected for the ligand blocking assay. The IC50 was determined using non-linear regression analysis of the competition curves using a Hill equation curve fitting (Y=D+[(A−D)/(1+(C/C50)nH)], where Y=specific binding, D=minimum specific binding, A=maximum specific binding, C=compound concentration, C50=IC50, and nH=slope factor). The inhibition constants Ki were calculated using Cheng Prusoff equation. Ki is defined as the concentration of the competing ligand (mazindol) that bound to half the binding sites at equilibrium in the absence of radioligand or other competitors."}, "[4]": {"molecular_target": "dopamine reuptake transporter (Homo sapiens, UniProt Q01959)", "conditions": "background statement; cited from earlier work"}, "[5]": {"molecular_target": "noradrenergic reuptake transporter (Homo sapiens, UniProt P23975)", "conditions": "background statement; cited from earlier work"}, "[6]": {"molecular_target": "serotonergic reuptake transporter (Homo sapiens, UniProt P31645)", "conditions": "background statement; cited from earlier work"}, "[7]": {"molecular_target": "H1 receptor (Homo sapiens, UniProt P35367)", "conditions": "background statement; cited from earlier work"}, "[8]": {"molecular_target": "T4, μ-opioid receptors in the guinea pig ileum (Cavia porcellus, UniProt A0ACM8Q262)", "test": "μ-opioid receptor bioassay, test for agonist activity (twitch contraction amplitude)", "conditions": "for agonist activity: decrease in twitch contraction amplitude / agonist activity: decrease in twitch contraction amplitude, +Naloxone: mean, n=2"}, "[9]": {"molecular_target": "T4, μ-opioid receptors in the guinea pig ileum", "test": "μ-opioid receptor bioassay, test for antagonist activity (DAMGO-induced decrease in twitch contraction amplitude)", "conditions": "for antagonist activity: response to DAMGO (1.0E−07M) in presence of compound: mean, n=2"}},
  "data": [
    {"smiles": "OC1(c2ccc(Cl)cc2)c2ccccc2C2=NCCN21", "note": "(stereo not shown) [mazindol, 5-(p-chloropheny)-2,5-dihydro-3H-imidazo[2,1-a] isoindol-5-ol]", "values": [
      {"measurement": "inhibition at 10 µM", "setting": "[1]", "value": 14, "unit": "%"},
      {"measurement": "% Inhib.", "setting": "[2]", "value": 33, "unit": "%"},
      {"measurement": "IC50", "setting": "[3]", "value": 690, "unit": "nM"},
      {"measurement": "Ki", "setting": "[3]", "value": 280, "unit": "nM"},
      {"measurement": "inhibition at 10 µM", "setting": "[3]; 10 μM mazindol, [3H] Ala2-MePhe4-Gly5-Enkephalin 0.5 nM, 120 min/22° C.", "value": 84, "unit": "%"},
      {"measurement": "nH (slope factor)", "setting": "[3]; M (h) (MOP) (agonist site)", "value": 0.8},
      {"measurement": "binding at the μ-opioid receptor (specific binding), 1st test", "setting": "[3]; mazindol 1.0E−04 M", "value": 5.8},
      {"measurement": "binding at the μ-opioid receptor (specific binding), 2nd Test", "setting": "[3]; mazindol 1.0E−04 M", "value": 7.4},
      {"measurement": "binding at the μ-opioid receptor (specific binding), Mean", "setting": "[3]; mazindol 1.0E−04 M", "value": 6.6},
      {"measurement": "binding at the μ-opioid receptor (specific binding), 1st test", "setting": "[3]; mazindol 1.0E−05 M", "value": 12.6},
      {"measurement": "binding at the μ-opioid receptor (specific binding), 2nd Test", "setting": "[3]; mazindol 1.0E−05 M", "value": 13.0},
      {"measurement": "binding at the μ-opioid receptor (specific binding), Mean", "setting": "[3]; mazindol 1.0E−05 M", "value": 12.8},
      {"measurement": "binding at the μ-opioid receptor (specific binding), 1st test", "setting": "[3]; mazindol 1.0E−06 M", "value": 42.4},
      {"measurement": "binding at the μ-opioid receptor (specific binding), 2nd Test", "setting": "[3]; mazindol 1.0E−06 M", "value": 41.7},
      {"measurement": "binding at the μ-opioid receptor (specific binding), Mean", "setting": "[3]; mazindol 1.0E−06 M", "value": 42.0},
      {"measurement": "binding at the μ-opioid receptor (specific binding), 1st test", "setting": "[3]; mazindol 1.0E−07 M", "value": 83.2},
      {"measurement": "binding at the μ-opioid receptor (specific binding), 2nd Test", "setting": "[3]; mazindol 1.0E−07 M", "value": 83.2},
      {"measurement": "binding at the μ-opioid receptor (specific binding), Mean", "setting": "[3]; mazindol 1.0E−07 M", "value": 83.2},
      {"measurement": "binding at the μ-opioid receptor (specific binding), 1st test", "setting": "[3]; mazindol 3.0E−05 M", "value": 9.1},
      {"measurement": "binding at the μ-opioid receptor (specific binding), 2nd Test", "setting": "[3]; mazindol 3.0E−05 M", "value": 7.6},
      {"measurement": "binding at the μ-opioid receptor (specific binding), Mean", "setting": "[3]; mazindol 3.0E−05 M", "value": 8.3},
      {"measurement": "binding at the μ-opioid receptor (specific binding), 1st test", "setting": "[3]; mazindol 3.0E−06 M", "value": 24.7},
      {"measurement": "binding at the μ-opioid receptor (specific binding), 2nd Test", "setting": "[3]; mazindol 3.0E−06 M", "value": 26.4},
      {"measurement": "binding at the μ-opioid receptor (specific binding), Mean", "setting": "[3]; mazindol 3.0E−06 M", "value": 25.5},
      {"measurement": "binding at the μ-opioid receptor (specific binding), 1st test", "setting": "[3]; mazindol 3.0E−07 M", "value": 58.2},
      {"measurement": "binding at the μ-opioid receptor (specific binding), 2nd Test", "setting": "[3]; mazindol 3.0E−07 M", "value": 60.9},
      {"measurement": "binding at the μ-opioid receptor (specific binding), Mean", "setting": "[3]; mazindol 3.0E−07 M", "value": 59.5},
      {"measurement": "binding at the μ-opioid receptor (specific binding), 1st test", "setting": "[3]; mazindol 3.0E−08 M", "value": 102.1},
      {"measurement": "binding at the μ-opioid receptor (specific binding), 2nd Test", "setting": "[3]; mazindol 3.0E−08 M", "value": 97.5},
      {"measurement": "binding at the μ-opioid receptor (specific binding), Mean", "setting": "[3]; mazindol 3.0E−08 M", "value": 99.8},
      {"measurement": "binding activity at dopamine reuptake transporter", "setting": "[4]", "value": "specific inhibitory binding activity"},
      {"measurement": "binding activity at noradrenergic reuptake transporter", "setting": "[5]", "value": "specific inhibitory binding activity"},
      {"measurement": "binding activity at serotonergic reuptake transporter", "setting": "[6]", "value": "specific inhibitory binding activity"},
      {"measurement": "binding at the H1 receptor", "setting": "[7]", "value": "moderately potent binding"},
      {"measurement": "agonist activity: decrease in twitch contraction amplitude", "setting": "[8]; compound 1.0E−05 M", "value": "94% of the control response to DAMGO"},
      {"measurement": "agonist activity: decrease in twitch contraction amplitude", "setting": "[8]; compound 1.0E−06 M", "value": "25% of the control response to DAMGO"},
      {"measurement": "agonist activity: decrease in twitch contraction amplitude", "setting": "[8]; compound 1.0E−07 M", "value": "1% of the control response to DAMGO"},
      {"measurement": "agonist activity: decrease in twitch contraction amplitude, +Naloxone", "setting": "[8]; compound 3.0E−05M + Naloxone (1.0E−07M)", "value": "5% of the control response to DAMGO"},
      {"measurement": "agonist activity: decrease in twitch contraction amplitude", "setting": "[8]; compound 3.0E−05 M", "value": "103% of the control response to DAMGO"},
      {"measurement": "agonist activity: decrease in twitch contraction amplitude", "setting": "[8]; compound 3.0E−06 M", "value": "64% of the control response to DAMGO"},
      {"measurement": "agonist activity: decrease in twitch contraction amplitude", "setting": "[8]; compound 3.0E−07 M", "value": "9% of the control response to DAMGO"},
      {"measurement": "effect on twitch contraction amplitude", "setting": "[8]; guinea pig ileum", "value": "concentration-dependent decrease in the twitch contraction amplitude"},
      {"measurement": "nature of the binding (agonist or antagonist) at the μ-opioid receptors", "setting": "[8]; guinea pig ileum", "value": "behaves as an agonist"},
      {"measurement": "reversal of the agonist-like response by reference antagonist naloxone", "setting": "[8]; guinea pig ileum", "value": "fully reversed by naloxone"},
      {"measurement": "EC50", "setting": "[8]; read-out: Agonist activity EC50 value, guinea pig ileum, linear regression of concentration-response curve", "value": 2000, "unit": "nM"},
      {"measurement": "antagonist activity: response to DAMGO (1.0E−07M) in presence of compound", "setting": "[9]; compound 1.0E−05 M", "value": "105% of the control response to DAMGO"},
      {"measurement": "antagonist activity: response to DAMGO (1.0E−07M) in presence of compound", "setting": "[9]; compound 1.0E−06 M", "value": "100% of the control response to DAMGO"},
      {"measurement": "antagonist activity: response to DAMGO (1.0E−07M) in presence of compound", "setting": "[9]; compound 1.0E−07 M", "value": "100% of the control response to DAMGO"},
      {"measurement": "antagonist activity: response to DAMGO (1.0E−07M) in presence of compound", "setting": "[9]; compound 3.0E−05 M", "value": "107% of the control response to DAMGO"},
      {"measurement": "antagonist activity: response to DAMGO (1.0E−07M) in presence of compound", "setting": "[9]; compound 3.0E−06 M", "value": "102% of the control response to DAMGO"},
      {"measurement": "antagonist activity: response to DAMGO (1.0E−07M) in presence of compound", "setting": "[9]; compound 3.0E−07 M", "value": "100% of the control response to DAMGO"},
      {"measurement": "Antagonist activity IC50 value", "setting": "[9]; guinea pig ileum", "value": "no antagonist effect"},
      {"measurement": "concentrations causing a further decrease in twitch contraction amplitude beyond DAMGO", "setting": "[9]; guinea pig ileum", "value": "higher than 1.0E-06 M"},
      {"measurement": "effect on the DAMGO-induced decrease in twitch contraction amplitude", "setting": "[9]; guinea pig ileum", "value": "did not reverse the DAMGO-induced decrease in twitch contraction amplitude"}
    ]},
    {"smiles": "C[C@@H](NC(=O)[C@@H](N)Cc1ccc(O)cc1)C(=O)NCC(=O)N(C)[C@@H](Cc1ccccc1)C(=O)NCCO", "note": "[DAMGO]", "values": [
      {"measurement": "agonist activity: decrease in twitch contraction amplitude, +Naloxone", "setting": "[8]; compound 1.0E−07M + Naloxone (1.0E−07M)", "value": "−10% of the control response to DAMGO"},
      {"measurement": "agonist activity: decrease in twitch contraction amplitude", "setting": "[8]; compound 1.0E−07 M", "value": "104% of the control response to DAMGO"},
      {"measurement": "agonist activity: decrease in twitch contraction amplitude", "setting": "[8]; compound 1.0E−08 M", "value": "62% of the control response to DAMGO"},
      {"measurement": "agonist activity: decrease in twitch contraction amplitude", "setting": "[8]; compound 1.0E−09 M", "value": "14% of the control response to DAMGO"}
    ]}
  ]
}
